Data published in patent US7625872B2, “Branched immunomodulatory compounds and methods of using the same” (Dynavax Technologies Corporation, priority 2002, dated 2009).

Key:
human PBMC cells = experiment: human PBMC assay: IFN-γ and IFN-α in cell-free medium by ELISA; type: cell-based; details: for IFN-α (pg/ml) 17240 / IFN-γ (pg/ml) 17240: donor 17240; for IFN-α (pg/ml) 17240 / IFN-γ (pg/ml) 17240 / IFN-α (pg/ml) 17241 / IFN-γ (pg/ml) 17241 / IFN-α (pg/ml) 17242 / IFN-γ (pg/ml) 17242 / IFN-α (pg/ml) 17243 / IFN-γ (pg/ml) 17243 / IFN-α (pg/ml) mean: test samples 20 μg/ml, '+ PLGA' = premixed with 100 μg/ml cPLGA; for IFN-α (pg/ml) 17240 / IFN-γ (pg/ml) 17240 / IFN-α (pg/ml) 17241 / IFN-γ (pg/ml) 17241 / IFN-α (pg/ml) 17242 / IFN-γ (pg/ml) 17242 / IFN-α (pg/ml) 17243 / IFN-γ (pg/ml) 17243 / IFN-α (pg/ml) mean / IFN-α +PLGA / IFN-γ +PLGA / IFN-α −PLGA / IFN-γ −PLGA: 24 hours; for IFN-α (pg/ml) 17240 / IFN-γ (pg/ml) 17240 / IFN-α (pg/ml) 17241 / IFN-γ (pg/ml) 17241 / IFN-α (pg/ml) 17242 / IFN-γ (pg/ml) 17242 / IFN-α (pg/ml) 17243 / IFN-γ (pg/ml) 17243: SAC 1/5000 dilution; for IFN-α (pg/ml) 17241 / IFN-γ (pg/ml) 17241: donor 17241; for IFN-α (pg/ml) 17242 / IFN-γ (pg/ml) 17242: donor 17242; for IFN-α (pg/ml) 17243 / IFN-γ (pg/ml) 17243: donor 17243; for IFN-α (pg/ml) mean: mean of 4 donors; for IFN-α +PLGA / IFN-γ +PLGA / IFN-α −PLGA / IFN-γ −PLGA: mean results (Table 4; unit in Table 3); for IFN-α +PLGA / IFN-γ +PLGA: 20 μg/ml formulated with 100 μg/ml cPLGA; for IFN-α −PLGA / IFN-γ −PLGA: compound alone, 20 μg/ml
Experimental: Peripheral blood was collected from volunteers by venipuncture using heparinized syringes. Blood was layered onto a FICOLL® (Amersham Pharmacia Biotech) cushion and centrifuged. PBMCs, located at the FICOLL® interface, were collected, then washed twice with cold phosphate buffered saline (PBS). The cells were resuspended and cultured in 48 well plates or 96-well plates at 2×10^6 cells/mL at 37° C. in RPMI 1640 with 10% heat-inactivated human AB serum plus 50 units/mL penicillin, 50 μg/mL streptomycin, 300 μg/mL glutamine, 1 mM sodium pyruvate, and 1×MEM non-essential amino acids (NEAA).
The cells were cultured in the absence of test samples, in the presence of test samples at 20 μg/ml (0.5 OD/ml), or in the presence of test samples at 20 μg/ml premixed with 100 μg/ml cationic poly(lactic acid, glycolic acid) microcarriers (cPLGA; see infra) (when used) for 24 hours. Cell-free medium was then collected from each well and assayed for IFN-γ and IFN-α concentrations. SAC (Pansorbin CalBiochem, 1/5000 dilution) was used as a positive control. SAC is Staph. aureus (cowan) cell material.
IFN-γ and IFN-α were assayed using CYTOSCREEN™ ELISA kits from BioSource International, Inc., according to the manufacturer's instructions.
Compound B07 (see Example 1, above) was tested for immunomodulatory activity in human PBMC cells as outlined in Example 9, above. For comparison purposes, the immunomodulatory activities of a variety of polynucleotides and chimeric molecules containing spacer moieties were also assayed. The syntheses and features of immunomodulatory chimeric molecules like compounds C-101, C-124, and C-125 are described in U.S. patent application Ser. No. 10/176,883 entitled, “Chimeric Immunomodulatory Compounds and Methods of Using the Same,” filed on Jun. 21, 2002, herein incorporated by reference. All nucleotide linkages and linkages between NAMs, spacer moieties and branch-point nucleosides in the listed compounds are phosphorothioate esters. HEG=hexaethylene glycol; symmetrical doubler=1,3-diamino-2-propanol; trebler=modified pentaerythritol; T-C6=2′-deoxyuridine; AHA=aminohexyl-3(E)-acrylamido linked at the C-5 position of 2′-deoxyuridine (see FIG. 1A). The compounds were each tested both alone and formulated with cPLGA (see Example 9, supra).

[1] = solubility of spacer moiety measured as dialcohol precursor; type: physicochemical; details: dodecyl spacer measured as dialcohol precursor; water solubility
Experimental: In addition, a spacer moiety that has low solubility, such as a dodecyl spacer (solubility <5 mg/ml when measured as dialcohol precursor 1,12-dihydroxydodecane) is not preferred because it can reduce the hydrophilicity and activity of the BIC. Preferably, spacer moieties have solubility much greater than 5 mg/ml (e.g., solubility at least about 20 mg/ml, at least about 50 mg/ml or at least about 100 mg/ml), e.g., when measured as dialcohol precursors. The form of the spacer moiety used for testing its water solubility is generally its most closely related unactivated and unprotected spacer precursor molecule.

Row | Compound | IFN-α (pg/ml) 17240 (human PBMC cells) | IFN-γ (pg/ml) 17240 (human PBMC cells) | IFN-α (pg/ml) 17241 (human PBMC cells) | IFN-γ (pg/ml) 17241 (human PBMC cells) | IFN-α (pg/ml) 17242 (human PBMC cells) | IFN-γ (pg/ml) 17242 (human PBMC cells) | IFN-α (pg/ml) 17243 (human PBMC cells) | IFN-γ (pg/ml) 17243 (human PBMC cells) | IFN-α (pg/ml) mean (human PBMC cells) | IFN-α +PLGA (human PBMC cells) | IFN-γ +PLGA (human PBMC cells) | IFN-α −PLGA (human PBMC cells) | IFN-γ −PLGA (human PBMC cells) | solubility [1] | immunomodulatory activity compared with linear polynucleotide P-6 (human PBMC cells; PBMC assays, in words) | induction of IFN-γ and IFN-α compared with chimeric compounds (human PBMC cells; PBMC assays, in words)
1 | 5′-TGACTGTGAACCTTAGAGATGA-3′ (DNA TGACTGTGAACCTTAGAGATGA; DNA, all phosphorothioate, methylation of C not given here) [P-7] | 30 pg/mL | 35 pg/mL | 30 pg/mL | 127 pg/mL | 30 pg/mL | 10 pg/mL | 30 pg/mL | 58 pg/mL | 30 pg/mL | 30 pg/mL | 34 pg/mL | 30 pg/mL | 58 pg/mL | – | – | –
2 | 5′-TGACTGTGAACGTTCGAGATGA-3′ [P-6] | 86 pg/mL | 172 pg/mL | 30 pg/mL | 158 pg/mL | 57 pg/mL | 47 pg/mL | 30 pg/mL | 77 pg/mL | 51 pg/mL | 295 pg/mL | 568 pg/mL | 51 pg/mL | 113 pg/mL | – | – | –
3 | OCCCCCCCCCCCCO [1,12-dihydroxydodecane] | – | – | – | – | – | – | – | – | – | – | – | – | – | < 5000 µg/mL | – | –
4 | (5-TCGACGT-3′-HEG)2-(T-C6)-AHA-HEG-5′-TCGACGT-3′ [B07] | 1080 pg/mL | 205 pg/mL | 122 pg/mL | 108 pg/mL | 1039 pg/mL | 30 pg/mL | 201 pg/mL | 140 pg/mL | 610 pg/mL | 7298 pg/mL | 883 pg/mL | 610 pg/mL | 121 pg/mL | – | far superior immunomodulatory activity than the linear polynucleotide P-6 | activity similar to the immunomodulatory chimeric compounds C-101, C-124, and C-125
5 | (5′-TAGTCAT-3′-HEG)2-glycerol-HEG-5′-AACCTTC-3′ [M-100] | 30 pg/mL | 27 pg/mL | 30 pg/mL | 71 pg/mL | 30 pg/mL | 10 pg/mL | 30 pg/mL | 41 pg/mL | 30 pg/mL | 69 pg/mL | 136 pg/mL | 30 pg/mL | 37 pg/mL | – | – | –
6 | (5′-TAGTCAT-3′-HEG)2-symmetrical doubler-HEG-5′-TAGTCAT-3′ [M-101] | 39 pg/mL | 24 pg/mL | 30 pg/mL | 10 pg/mL | 30 pg/mL | 10 pg/mL | 30 pg/mL | 22 pg/mL | 32 pg/mL | 68 pg/mL | 92 pg/mL | 32 pg/mL | 16 pg/mL | – | – | –
7 | (5′-TAGTCAT-HEG)3-trebler-HEG-5′-TAGTCAT-3′ [M-102] | 30 pg/mL | 34 pg/mL | 30 pg/mL | 24 pg/mL | 30 pg/mL | 10 pg/mL | 30 pg/mL | 45 pg/mL | 30 pg/mL | 85 pg/mL | 61 pg/mL | 30 pg/mL | 28 pg/mL | – | – | –
8 | (5′-TCGACGT3′-HEG)2-(T-C6 brancher)-HEG-5′-TCGACGT-3′ [B07 (#2)] | 1046 pg/mL | 207 pg/mL | 253 pg/mL | 129 pg/mL | 1365 pg/mL | 48 pg/mL | 520 pg/mL | 158 pg/mL | 796 pg/mL | 8998 pg/mL | 1016 pg/mL | 796 pg/mL | 135 pg/mL | – | – | –
9 | (5′-TCGACGT-3′-HEG)2-glycerol-HEG-5′-TCGACGT-3′ [C-101] | 2189 pg/mL | 237 pg/mL | 520 pg/mL | 147 pg/mL | 1071 pg/mL | 73 pg/mL | 293 pg/mL | 142 pg/mL | – | 5609 pg/mL | 1323 pg/mL | – | 150 pg/mL | – | – | –
10 | (5′-TCGACGT-3′-HEG)2-symmetrical doubler-HEG-5′-TCGACGT-3′ [C-124] | 1048 pg/mL | 303 pg/mL | 239 pg/mL | 155 pg/mL | 1186 pg/mL | 65 pg/mL | 249 pg/mL | 142 pg/mL | 680 pg/mL | 7017 pg/mL | 2661 pg/mL | 680 pg/mL | 166 pg/mL | – | – | –
11 | (5′-TCGACGT-3′-HEG)3-trebler-HEG-5′-TCGACGT-3′ [C-125] | 1519 pg/mL | 253 pg/mL | 67 pg/mL | 136 pg/mL | 1284 pg/mL | 85 pg/mL | 309 pg/mL | 184 pg/mL | 795 pg/mL | 6348 pg/mL | 889 pg/mL | 795 pg/mL | 165 pg/mL | – | – | –
